Read-outs that look alike come from different tables or passages of the source.
Assays:
Type in all cases: cell-based, HIV-1
[1] = test system: Recombinant wild type HIV strain recIIIB; experiment: Antiviral MT4/MTT assay with reference virus recIIIB; settings: read-out: Anti-HIV-1 activity IC50 (μM) recIIIB ref (2)
Experimental: (§1) After titration of the new viruses, the stocks were used for antiviral experiments in the presence of serial dilutions of different HIV inhibitors. Titres of the harvested supematants were determined by limited serial dilution titration of virus in MT4 cells.
(§2) Viruses with a useful titre were used in antiviral experiments. For this purpose, 96-well microtitre plates were filled with 100μl of complete culture medium. Subsequently, stock solutions of compounds were added in 25 μl volumes to series of duplicate wells. HIV- and mock-infected cell samples were included for each drug (or drug combination). Exponentially growing MT4 cells were then transferred to the microtitre plates at a density of 150,000 cells/ml. The cell cultures were then incubated at 37° C. in a humidified atmosphere of 5% CO2. Five days after infection, the viability of the mock- and HIV-infected cells was examined spectrophotometrically by the M1T method (Pauwels, R. et al. J. Virol. Meth. (1988), 20: 309-321) as described in Section 6 below.
(§3) To each well of the microtiter plates, 20 μl of a solution of MTT (7.5 mg/ml in PBS) was added. The plates were further incubated at 37° C. for 1 h. Then, 150 μl of medium was removed without disturbing the MT4 cell clusters containing the formazan crystals. Solubilization of the formazan crystals was achieved by adding 100 μl 5% Triton X-100 in acidified isopropanol (5 ml concentrated HCl per liter solvent). Complete dissolution of the formazan crystals was obtained after the plates had been placed on a plate shaker for 10 min. Finally the absorbances were read at two wavelengths (540 and 690 nm). From these optical density (OD) data, 50% inhibitory (IC50) and 50% cytotoxic (CC50) concentrations were derived.

[2] = test system: recombinant virus from patient viral RNA (Example 5, 3TC resistant HIV strains); experiment: Recombinant virus assay (MT4/MTT), patient of Example 5 (AZT, then AZT+3TC therapy); settings: for IC50: Human immunodeficiency virus 1, Table 1, Example 5 patient virus; for ratio (1)/(2): Table 1, patient mean IC50 / recIIIB IC50, Example 5
Experimental: (§4) RNA was isolated from 100 μl of plasma according to the method described by Boom, R. et al. (1990, supra), and was reverse transcribed with the GeneAmp reverse transcriptase kit (Perkin Elmer) as described by the manufacturer and using an HIV-1 specific downstream primer (OUT3: 5′-CATTGCTCTCCAATTACTGTGATATTTCTCATC-3′; SEQ ID NO: 1). PCR on reverse transcribed RNA was performed with inner and outer primers as described by Kellam, P. and Larder, B. A. (1994, supra). After chloroform extraction and centrifugation on Centricon 100 columns or centrifugation on anion-exchange spin columns (Quiagen), the isolated PCR product was ready for use in the transfection reactions.
(§5) MT4 cells were subcultured at a density of 250,000 cells/ml before transfection (exponential growth phase). Cells were pelleted and resuspended in phosphate buffered saline (PBS) at a concentration of […]. A 0.8 ml portion (2.5 10E6 cells/ml) was used for each transfection. Transfection was performed with the Bio-Rad Gene pulser making use of 0.4 cm electrode cuvettes. Cells were electroporated in the presence of […] of linearised pHIVΔRT plasmid and approximately 5 μg of RT PCR product at 250SF and 300 V, followed by a 30-min incubation at room temperature. Subsequently, 10 ml of fresh culture medium was added to the cell suspension and incubation was performed at 37° C. in a humidified atmosphere of 5% CO2.
(§6) During 7 to 10 days following the transfection, cells were monitored for the appearance of cytopathogenic effect (CPE). In the absence thereof, cells were subcultured in different flasks. Subsequently, culture supernatants of transfected cells were used to create a stock of recombinant virus and stored in 1.5 ml aliquots at −70° C.
as §1, §2, §3
An HIV infected patient who received AZT from December 1989 until an undocumented later date, and switched to a combined chemotherapy of AZT+3TC (1:1) from February 1994 until October 1995 donated plasma whose susceptibility to a number of RT inhibitors was determined according to the above described protocol of Example 1. Recombinant wild type HIV strain recIIIB was used in said protocol as a reference HIV virus.

[3] = test system: recombinant virus from patient viral RNA (Example 7, drug-naive patient); experiment: Recombinant virus assay (MT4/MTT), drug-naive patient of Example 7; settings: for IC50: Human immunodeficiency virus 1, Table 3, Example 7 patient virus; for ratio (1)/(2): Table 3, patient mean IC50 / recIIIB IC50, Example 7
Experimental: as §4, §5, §6, §1, §2, §3
A drug-naive HIV-infected patient donated plasma whose susceptibility to a number of RT inhibitors was determined according to the protocol set out in Example 1. Recombinant wild type HIV strain recIIIB was used as a reference HIV virus.

[4] = test system: recombinant virus from patient viral RNA (Example 8); experiment: Recombinant virus assay (MT4/MTT), patient of Example 8 (therapy history AZT, 3TC and loviride); settings: for IC50: Human immunodeficiency virus 1, Table 4, Example 8 patient virus; for ratio (1)/(2): Table 4, patient mean IC50 / recIIIB IC50, Example 8
Experimental: as §4, §5, §6, §1, §2, §3
(§7) An HIV-infected patient with a therapy history including AZT, 3TC and loviride donated plasma whose susceptibility to a number of RT inhibitors was determined according to the protocol set out in Example 1. Recombinant wild type HIV strain recIIIB was used as a reference HIV virus.

[5] = test system: recombinant virus from patient viral RNA (Example 9); experiment: Recombinant virus assay (MT4/MTT), patient of Example 9 (multiple nucleoside analogue RT-inhibitors); settings: for IC50: Human immunodeficiency virus 1, Table 5, Example 9 patient virus; for ratio (1)/(2): Table 5, patient mean IC50 / recIIIB IC50, Example 9
Experimental: as §4, §5, §6, §1, §2, §3
as §7, with “multiple nucleoside analogue RT-inhibitors” for “AZT, 3TC and loviride”

[6] = test system: recombinant virus from patient viral RNA (Example 10, drug-naive patient); experiment: Recombinant virus assay (MT4/MTT), drug-naive patient of Example 10; settings: for IC50: Human immunodeficiency virus 1, Table 6, Example 10 patient virus; for ratio (1)/(2): Table 6, patient mean IC50 / recIIIB IC50, Example 10
Experimental: as §4, §5, §6, §1, §2, §3
A drug-naive HIV-infected patient donated plasma whose susceptibility to a number of RT inhibitors and protease inhibitors was determined according to the protocol set out in Example 1. Recombinant wild type HIV strain recIIIB was used as a reference HIV virus.

[7] = test system: recombinant virus from patient viral RNA (Example 11); experiment: Recombinant virus assay (MT4/MTT), patient of Example 11 (therapy history RT and protease inhibitors); settings: for IC50: Human immunodeficiency virus 1, Table 7, Example 11 patient virus; for ratio (1)/(2): Table 7, patient mean IC50 / recIIIB IC50, Example 11
Experimental: as §4, §5, §6, §1, §2, §3
as §7, with “HIV infected” for “HIV-infected”, “RT” for “AZT, 3TC”, “protease inhibitors” for “loviride”, “RT inhibitors and protease” for “RT”, “recIIIb” for “recIIIB”

[8] = test system: recombinant virus from patient viral RNA (Example 12); experiment: Recombinant virus assay (MT4/MTT), patient of Example 12 (therapy history RT and protease inhibitors); settings: for susceptibility of the patient's HIV strain (in words): Example 12 patient, conclusion from Table 8; for IC50: Human immunodeficiency virus 1, Table 8, Example 12 patient virus; for ratio (1)/(2): Table 8, patient mean IC50 / recIIIB IC50, Example 12
Experimental: as §4, §5, §6, §1, §2, §3
An HIV infected patient with a therapy history including RT and protease inhibitors donated plasma whose susceptibility to a number of RT inhibitors and protease inhibitors was determined according to the protocol set out in Example 1.

[9] = Human immunodeficiency virus 1, Table 1, reference run of Example 5
[10] = Human immunodeficiency virus 1, Table 3, reference run of Example 7
[11] = Human immunodeficiency virus 1, Table 4, reference run of Example 8
[12] = Human immunodeficiency virus 1, Table 5, reference run of Example 9
[13] = MT4 cells, read-out: Anti-HIV-1 activity IC50 (μM) Exp. 1
[14] = MT4 cells, read-out: Anti-HIV-1 activity IC50 (μM) Exp. 2
[15] = mean of Exp. 1 and 2, read-out: Anti-HIV-1 activity IC50 (μM) Mean (1)
[16] = mean, read-out: Anti-HIV-1 activity IC50 (μM) Mean (1)
[17] = Human immunodeficiency virus 1, Table 6, reference run of Example 10
[18] = Human immunodeficiency virus 1, Table 7, reference run of Example 11
[19] = Human immunodeficiency virus 1, Table 8, reference run of Example 12

| SMILES | IC50 [1, 9] | IC50 [1, 10] | IC50 [1, 11] | IC50 [1, 12] | IC50 [2, 13] | IC50 [2, 14] | IC50 [2, 15] | ratio (1)/(2) [2] | IC50 [3, 13] | IC50 [3, 14] | IC50 [3, 16] | ratio (1)/(2) [3] | IC50 [4, 13] | IC50 [4, 14] | IC50 [4, 16] | ratio (1)/(2) [4] | IC50 [5, 13] | IC50 [5, 14] | IC50 [5, 16] | ratio (1)/(2) [5] | other results |
| --- | --- | --- | --- | --- | --- | --- | --- | --- | --- | --- | --- | --- | --- | --- | --- | --- | --- | --- | --- | --- | --- |
| CC(=O)c1ccc(C)cc1NC(C(N)=O)c1c(Cl)cccc1Cl (stereo not drawn) [loviride] | 0.05 µM | 0.024 µM | 0.037 µM | 0.065 µM | 0.1 µM | 0.12 µM | 0.11 µM | 2 | 0.035 µM | 0.025 µM | 0.03 µM | 1 | > 100 µM | > 100 µM | > 100 µM | >2717 | 0.064 µM | 0.058 µM | 0.061 µM | 0.9 |  |
| CC(C)=CCN1Cc2c(Cl)ccc3[nH]c(=S)n(c23)C[C@@H]1C [tivirapine] | 0.01 µM | 0.021 µM | 0.021 µM | 0.042 µM | 0.019 µM | 0.018 µM | 0.019 µM | 1.5 | 0.042 µM | 0.049 µM | 0.046 µM | 2 | 1.63 µM | 1.6 µM | 1.61 µM | 78 | 0.052 µM | 0.043 µM | 0.048 µM | 1 |  |
| CC(C)(C)NC(=O)[C@@H]1CN(Cc2cccnc2)CCN1C[C@@H](O)C[C@@H](Cc1ccccc1)C(=O)N[C@H]1c2ccccc2C[C@H]1O [indinavir] |  |  |  |  |  |  |  |  |  |  |  |  |  |  |  |  |  |  |  |  | IC50 [1, 17]: 0.016 µM; IC50 [1, 18]: 0.027 µM; IC50 [1, 19]: 0.016 µM; IC50 [6, 13]: 0.013 µM; IC50 [6, 14]: 0.013 µM; IC50 [6, 16]: 0.013 µM; ratio (1)/(2) [6]: 0.8; susceptibility of the patient's HIV strain (in words) ([7]; Example 11 patient, conclusion from Table 7): decreased susceptibilty; IC50 [7, 13]: 0.229 µM; IC50 [7, 14]: 0.416 µM; IC50 [7, 16]: 0.323 µM; ratio (1)/(2) [7]: 12; susceptibility of the patient's HIV strain (in words) [8]: decreased susceptibility; IC50 [8, 13]: 0.124 µM; IC50 [8, 16]: 0.124 µM; ratio (1)/(2) [8]: 8 |
| CC(C)(C)NC(=O)[C@@H]1C[C@@H]2CCCC[C@@H]2CN1C[C@@H](O)[C@H](Cc1ccccc1)NC(=O)[C@H](CC(N)=O)NC(=O)c1ccc2ccccc2n1 [saquinavir] |  |  |  |  |  |  |  |  |  |  |  |  |  |  |  |  |  |  |  |  | IC50 [1, 17]: 0.006 µM; IC50 [1, 18]: 0.012 µM; IC50 [1, 19]: 0.006 µM; IC50 [6, 13]: 0.003 µM; IC50 [6, 14]: 0.003 µM; IC50 [6, 16]: 0.003 µM; ratio (1)/(2) [6]: 0.4; IC50 [7, 13]: 0.014 µM; IC50 [7, 14]: 0.015 µM; IC50 [7, 16]: 0.014 µM; ratio (1)/(2) [7]: 1; susceptibility of the patient's HIV strain (in words) [8]: decreased susceptibility; IC50 [8, 13]: 0.35 µM; IC50 [8, 14]: 0.352 µM; IC50 [8, 16]: 0.351 µM; ratio (1)/(2) [8]: 56 |

From patent US6528251B2, “Method of managing the chemotherapy of patients who are HIV positive based on the phenotypic drug sensitivity of human HIV strains” (Virco N.V., priority 1996, dated 2003)
